# Measured values reported in the SangsterLogP compilation.
# Test: method code SF, from Hansch, C. & Leo, A. (1987). Log P database [Dataset]. Pomona College Medicinal Chemistry Project.
# Conditions: not given
row,Structure (SMILES),logP
1,N#CC(Cl)(Cl)Cl,2.09
2,CS(=O)(=O)N(c1ccccc1)S(C)(=O)=O,0.62
3,O=NN(Cc1ccccc1)c1ccccc1,3.38
4,COc1cc(C=NOC(=O)c2cc(OC)c(OC)c(OC)c2)ccc1OCCO,2.7
5,O=C(c1ccco1)C(O)c1ccco1 (configuration not stated),0.54
6,C1OC1CN1CCN(CC2CO2)CC1 (configuration not stated),-0.84
7,C=C(Cl)Cl,2.13
8,C[C@@H]1C[C@H]2[C@@H]3C[C@H](F)C4=CC(=O)C(Cl)=C[C@]4(C)[C@@]3(F)[C@@H](O)C[C@]2(C)[C@@]1(O)C(=O)CO,2.58
9,O=C(O)COc1ccc(Cl)c(C(=O)O)c1,1.07
10,COc1cc(C=O)ccc1OCCOC(=O)c1ccc(Cl)cc1,3.71
11,CN(C(=O)CCBr)c1ccc(S(=O)(=O)N(C)C)cc1,1.13
12,CC=CC1=Nc2cc(Cl)ccc2S(=O)(=O)N1,1.96
13,O=S1(=O)NC(C2CC2)=Nc2cc(Cl)ccc21,1.98
14,C(#Cc1ccccc1)c1ccccc1,4.78
15,Cc1ccncc1,1.22
16,CN(C(=O)CCS(C)=O)c1ccc(S(=O)(=O)N(C)C)cc1 (configuration not stated),-0.67
17,CCSc1ccccc1,3.2
18,CN(C)C(=S)NCc1ccccc1,1.59
19,CN(C(=O)CC[N+](=O)[O-])c1ccc(S(=O)(=O)N(C)C)cc1,0.3
20,O=C(CNC(=O)c1ccccc1)Oc1cccc([N+](=O)[O-])c1,2.46
21,CC(C)Oc1cn[nH]c1,1.13
22,O=C(O)c1cc(=O)c2c(OCC(O)COc3cccc4oc(C(=O)O)cc(=O)c34)cccc2o1,1.92
23,COC(=O)C(=Cc1ccccc1)C(=O)OC,2.24
24,CCOC(=O)CON=Cc1ccc(OCCOC(=O)CC)c(OC)c1,2.39
25,Nc1cccc(OC(=O)CNC(=O)c2ccccc2)c1,1.3
26,OC(c1nc2ccccc2[nH]1)C(O)c1nc2ccccc2[nH]1 (configuration not stated),1.14
27,NC(=O)c1ccoc1,0.09

row,Structure (SMILES),logP
1,COc1cc(OC)c(OC)cc1CC(C)N (configuration not stated),1.74
2,Cc1cccc(C)c1[N+](=O)[O-],2.95
3,CCCCCCOC(=O)c1ccc(O)cc1,4.35
4,O=C(O)CCCc1c[nH]c2ccccc12,2.3
5,O=C(O)COc1ccccc1O,0.85
6,O=C1CCC2CCCCC2C1 (configuration not stated),1.97
7,CCCCN(C)N=Nc1cn([C@@H]2O[C@H](CO)[C@@H](O)[C@H]2O)c(=O)n(C)c1=O,-0.45
8,N#Cc1cccc(N)c1,1.07
9,CCC1=Nc2cc(Cl)ccc2S(=O)(=O)N1,1.61
10,N#Cc1cccc(C(N)=O)c1,0.52
11,Sc1ccccc1,2.52
12,Cc1nnc(SCc2ccccc2)o1,1.74
13,CCOC(=O)Cn1ccnc1C=Cc1ccc([N+](=O)[O-])o1,1.27
14,O=C(NN=Cc1ccccc1)c1ccccc1,2.56
15,CCOc1ccccc1,2.51
16,OC(O)(C(F)(F)F)C(F)(F)F,1.46
17,COc1ccc2c(c1)N(CCCN(C)C)c1ccccc1S2,4.46
18,Cc1oc2cc(OCC#N)ccc2c(=O)c1C,1.96
19,CCCc1ccc2c(c1)C(=O)c1ccc(NC(C)=O)cc1S2(=O)=O,3.51
20,O=C(Nc1ccc(Cl)c(Cl)c1)c1ccccc1,4.42
21,CC(=O)Nc1ccc2c(c1)[nH]c1ccccc12,3.02
22,COC(=O)[C@@]12OC[C@@]34[C@H](C[C@@H]5C(C)=C(O)C(=O)C[C@]5(C)[C@H]3C(O)C1O)OC(=O)C(OC(=O)C=C(C)C(C)C)[C@@H]42 (some centres not stated),1.66
23,O=C(O)COc1ccccc1-c1ccccc1,2.83
24,CCc1ccsc1,2.82
25,CS(=O)c1ccccc1 (configuration not stated),0.55
26,COCC1=Nc2cc(Cl)ccc2S(=O)(=O)N1,1.12
27,CCC(C)c1ccccc1OC(=O)N(C)C (configuration not stated),3.31

# Same assay, conditions: pH 2.0
row,Structure (SMILES),logD
1,Cn1cc(C(=O)O)c2ccccc21,1.76
2,CN(C)/N=N/c1ccccc1I,3.5

# Same assay, conditions: pH 2.2
row,Structure (SMILES),logD
1,CCCc1c(OCCCCc2nnn[nH]2)ccc(C(C)=O)c1O,3.82

# Same assay, conditions: pH 3.0
row,Structure (SMILES),logD
1,Cc1nnc(SCC2=C(C(=O)O)N3C(=O)C(NC(=O)Cc4cccs4)C3SC2)s1 (configuration not stated),0.67

# Same assay, conditions: pH 5.0
row,Structure (SMILES),logD
1,CC(C)c1cccc(O)c(=O)c1,1.82

# Same assay, conditions: pH 7.0
row,Structure (SMILES),logD
1,NC(=O)c1ccco1,-0.11
2,CC(=O)c1ccc(N(C)C)cc1,2.1

# Same assay, conditions: pH 7.4
row,Structure (SMILES),logD
1,Nc1nc(S)c2ncn(C3CC(O)C(CO)O3)c2n1 (configuration not stated),-0.56
2,OC[C@H]1O[C@@H](n2cnc3c(=S)nc[nH]c32)[C@H](O)[C@@H]1O,-0.6
3,C=CCn1c(C)c(N(C)C)c(=O)n(-c2ccccc2)c1=O,1.44
4,Cc1c(N(C)C)c(=O)n(CCO)c(=O)n1-c1ccccc1,1.12
5,Cc1[nH]c(=O)[nH]c(=O)c1N(CCF)CCCl,0.85
6,C#CCN(C)/N=N/c1nc[nH]c1C(N)=O,0.33
7,Cc1c(N(C)C)c(=O)[nH]c(=O)n1-c1ccccc1,1.4
8,Sc1ncnc2nc[nH]c12,0.01

# Same assay, conditions: pH 9.0
row,Structure (SMILES),logD
1,NN1CCCCC1,-0.28

# Same assay, conditions: pH 11.0
row,Structure (SMILES),logD
1,CNC=CCCc1cccnc1,1.13
2,NCc1cccnc1,-0.1
3,CCNCCc1cccnc1,0.54

# Same assay, conditions: pH 13.0
row,Structure (SMILES),logD
1,COc1ccc(N2C(N)=NC(N)=NC2(C)C)cc1,0.4
2,Nc1cn[nH]c1,-1.09
3,CCOc1cc(Cc2cnc(N)nc2N)cc(OCC)c1,2.52
4,CC1(C)N=C(N)N=C(N)N1c1ccc(Br)cc1,1.09
